Where two headings read alike, the source gives them in different places.
What was measured:
[1] = biological target: T1, hNEU2 (human cytosolic sialidase) (Homo sapiens, UniProt Q9Y3R4); assay: Fluorescence-based inhibition assay (substrate Neu5Acα2-3GalβMU, β-galactosidase coupled); assay type: biochemical; details: inhibitor 8.0 μM
T1 construct: made in house

[2] = biological target: NB-Aus21 (IBV neuraminidase) (Influenza B virus, UniProt A0A1X9RX69); assay: biochemical; parameters: species or system influenza B virus B/Austria/1359417/2021
[3] = biological target: N1-BR18 (IAV neuraminidase) (Influenza A virus, UniProt A0A0X9QTS2); assay: Fluorescence-based inhibition assay (substrate Neu5Acα2-3GalβMU, β-galactosidase coupled); assay type: biochemical, influenza A virus A/Brisbane/02/2018 (H1N1); details: for Percentage inhibition against N1-BR18 (IAV) / percentage inhibition against N1-BR18: inhibitor 8.0 μM; for Percentage inhibition against N1-BR18 (IAV): substrate Neu5Acα2-3GalβMU 8.0 μM; for IC50: read-out: IC50 against N1-BR18
[4] = biological target: T2, SpNanA (sialidase) (Streptococcus pneumoniae, UniProt P62575); assay: as above; assay type: biochemical; details: for inhibition at 8 µM: read-out: percent inhibition against SpNanA; for percent inhibition against SpNanA: inhibitor 8.0 μM, Table 5
T2 construct: made in house

[5] = biological target: T3, PmST1 WT (sialidase activity of α2-3-sialyltransferase 1 in the presence of CMP) (Pasteurella multocida, UniProt Q15KI8); assay: biochemical; details: for inhibition at 8 µM: read-out: percent inhibition against PmST1 WT; for percent inhibition against PmST1 WT: inhibitor 8.0 μM, in the presence of CMP, Table 5
T3 construct: made in house

[6] = biological target: N2-Dar21 (IAV neuraminidase) (Influenza A virus, UniProt A0A193ACB1); assay: Fluorescence-based inhibition assay (substrate Neu5Acα2-3GalβMU, β-galactosidase coupled); assay type: biochemical, influenza A virus A/Darwin/9/2021 (H3N2); details: for inhibition at 8 µM: read-out: percentage inhibition against N2-Dar21; for percentage inhibition against N2-Dar21: inhibitor 8.0 μM, Example 3, Table 4
[7] = biological target: NB-Phu13 (IBV neuraminidase) (Influenza B virus, UniProt A0A1S5RAG6); assay: as above; assay type: biochemical, influenza B virus B/Phuket/3073/2013; details: for inhibition at 8 µM: read-out: percentage inhibition against NB-Phu13; for percentage inhibition against NB-Phu13: inhibitor 8.0 μM, Example 3, Table 4
[8] = test system: N1-Vic19 (IAV neuraminidase); assay: as above; assay type: biochemical, influenza A virus A/Victoria/2570/2019 (H1N1); details: for percentage inhibition against N1-Vic19: inhibitor 8.0 μM, Example 3, Table 4
[9] = biological target: N2-Kan17 (IAV neuraminidase) (Influenza A virus, UniProt A0A193ACB1); assay: as above; assay type: biochemical, influenza A virus A/Kansas/14/2017 (H3N2); details: for inhibition at 8 µM: read-out: percentage inhibition against N2-Kan17; for percentage inhibition against N2-Kan17: inhibitor 8.0 μM, Example 3, Table 4
[10] = test system: human, bacterial, and influenza sialidases; assay: High-throughput substrate specificity assay with sialyl GalβpNPs (A405 nm); assay type: biochemical, bacteria, influenza A and B viruses; details: for cleavage by sialidases, selectivity: low and high enzyme-concentration assay conditions, Example 3
[11] = substrate Neu5Acα2-3GalβMU 8.0 μM, Example 2, Table 2
[12] = inhibitor 8.0 μM, substrate Neu5Acα2-3GalβMU 8.0 μM, Example 2, Table 2
[13] = substrate Neu5Acα2-3GalβMU 8.0 μM, Example 2, Table 2, read-out: Percentage inhibition against hNEU2
[14] = Table 5, read-out: percent inhibition against hNEU2
[15] = inhibitor 8.0 μM, substrate Neu5Acα2-3GalβMU 8.0 μM, Example 2, Table 2, read-out: Percentage inhibition against NB-Aus21 (IBV)
[16] = inhibitor 8.0 μM, Example 3, Table 4, read-out: percentage inhibition against NB-NB-Aus21
[17] = read-out: Percentage inhibition against N1-BR18 (IAV), inhibitor 8.0 μM, substrate Neu5Acα2-3GalβMU 8.0 μM, Example 2, Table 2
[18] = read-out: percentage inhibition against N1-BR18, inhibitor 8.0 μM, Example 3, Table 4
[19] = high-concentration enzyme conditions (10-fold, Vc sialidase 4-fold), 1 hour
[20] = high-concentration enzyme conditions, 14 hours
[21] = inhibitor 8.0 μM, Example 3, Table 4

T1 sequence (Q9Y3R4 whole entry): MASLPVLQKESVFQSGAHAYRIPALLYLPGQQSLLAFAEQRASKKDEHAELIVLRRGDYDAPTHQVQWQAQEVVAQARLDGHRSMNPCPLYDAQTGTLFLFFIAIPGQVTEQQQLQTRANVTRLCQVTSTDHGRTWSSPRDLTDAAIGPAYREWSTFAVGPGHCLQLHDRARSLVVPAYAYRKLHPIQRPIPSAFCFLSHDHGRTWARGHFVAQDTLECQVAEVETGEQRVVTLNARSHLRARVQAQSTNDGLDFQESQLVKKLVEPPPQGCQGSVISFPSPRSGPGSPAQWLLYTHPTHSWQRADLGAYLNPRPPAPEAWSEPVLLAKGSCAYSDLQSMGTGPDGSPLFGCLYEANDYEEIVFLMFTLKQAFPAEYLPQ

Row | Structure (SMILES) | Percentage inhibition against hNEU2 [1, 11] [%] | Percentage inhibition against NB-Aus21 (IBV) [2, 12] [%] | Percentage inhibition against N1-BR18 (IAV) ([3]; Example 2, Table 2) [%] | inhibition at 8 µM [4] [%] | inhibition at 8 µM [5] [%] | inhibition at 8 µM [1, 13] [%] | inhibition at 8 µM [1, 14] [%] | inhibition at 8 µM [6] [%] | inhibition at 8 µM [7] [%] | inhibition at 8 µM [2, 15] [%] | inhibition at 8 µM [2, 16] [%] | percentage inhibition against N1-Vic19 [8] [%] | inhibition at 8 µM [3, 17] [%] | inhibition at 8 µM [3, 18] [%] | inhibition at 8 µM [9] [%] | other results
1 | CC(=O)N[C@H]1[C@H]([C@H](O)[C@H](O)CO)OC(O)(C(=O)O)C[C@@H]1NC(=N)N (stereo partly shown) [4-Guanidino-Neu5Ac (9), 4-guanidino-Neu5Ac] | 3.3 ± 0.6 | 51.0 ± 0.1 | 76.4 ± 4.9 | – | – | – | – | – | – | – | – | – | – | – | – | –
2 | CC(=O)N[C@H]1[C@H]([C@H](O)[C@H](O)CO)OC(O)(C(=O)O)C[C@@H]1N=[N+]=[N-] (stereo partly shown) [4N3Neu5Ac (7), 4-azido-Neu5Ac] | 3.0 ± 0.8 | 37.5 ± 4.1 | 0.0 ± 4.5 | – | – | – | – | – | – | – | – | – | – | – | – | –
3 | CC(=O)N[C@@H]1C(N=[N+]=[N-])C[C@](OC2C(O)[C@H](Oc3ccc([N+](=O)[O-])cc3)OC(CO)[C@@H]2O)(C(=O)O)OC1[C@H](O)[C@H](O)CO (stereo partly shown) [4N3Neu5Acα2-3GalβpNP] | – | – | – | 0.6 ± 2.7 | 24 ± 6.9 | 0 | 0 | 0.8 | 0.9 | 22 ± 3.7 | 3.8 | 1.2 | 0 | 2.6 | 0.1 | cleavage by sialidases [10, 19]: completely cleaved; cleavage by sialidases [10, 20]: selectively by influenza virus NAs; cleavage by sialidases, selectivity [10]: selectively cleaved by all influenza NAs tested but not human NEU2 or bacterial sialidases; cleavage by sialidases ([10]; low-concentration enzyme conditions, 30 minutes, 37° C.): cleaved off selectively by influenza virus NAs only
4 | CC(=O)N[C@@H]1C(N=[N+]=[N-])C[C@](OCC2O[C@@H](Oc3ccc([N+](=O)[O-])cc3)C(O)C(O)[C@H]2O)(C(=O)O)OC1[C@H](O)[C@H](O)CO (stereo partly shown) [4N3Neu5Acα2-6GalβpNP] | – | – | – | 11.6 ± 6.7 | 41.3 ± 20.3 | 0 | 0 | 1 | 2.6 | 23 ± 3.6 | 1.4 | 3.9 | 0 | 0.2 | 0 | cleavage by sialidases [10, 19]: low percentage; cleavage by sialidases [10, 20]: selectively by influenza virus NAs; cleavage by sialidases, selectivity [10]: observed only under the high-enzyme-concentration assay conditions
5 | CC(=O)N[C@H]1[C@H]([C@H](O)[C@H](O)CO)OC(C(=O)O)=C[C@@H]1NC(C)=O [4NAcNeu5Ac2en] | 2.1 ± 2.5 | 21.3 ± 0.2 | 0.0 ± 2.5 | – | – | – | – | – | – | – | – | 0.7 | – | – | – | percent inhibition against SpNanA [4]: 0.5 ± 6.5%; percent inhibition against PmST1 WT [5]: 7.1 ± 0.7%; percent inhibition against hNEU2 ([1]; Table 5): 2.1 ± 2.5%; percentage inhibition against N2-Dar21 [6]: 2.4%; percentage inhibition against NB-Phu13 [7]: 0.6%; percentage inhibition against NB-NB-Aus21 [2, 21]: 1.4%; percentage inhibition against N1-BR18 ([3]; Example 3, Table 4): 2.5%; percentage inhibition against N2-Kan17 [9]: 6.1%
6 | CC(=O)N[C@H]1[C@H]([C@H](O)[C@H](O)CO)OC(O)(C(=O)O)C[C@@H]1NC(C)=O (stereo partly shown) [4NAcNeu5Ac (3), 4NAcNeu5Ac] | 3.0 ± 1.0 | 27.9 ± 10.1 | 11.5 ± 22.7 | – | – | – | – | – | – | – | – | – | – | – | – | –
7 | CC(=O)NC1C[C@](OCC2O[C@@H](Oc3ccc([N+](=O)[O-])cc3)C(O)C(O)[C@H]2O)(C(=O)O)OC([C@H](O)[C@H](O)CO)[C@@H]1NC(C)=O (stereo partly shown) [4NAcNeu5Acα2-6GalβpNP] | – | – | – | 4.2 ± 0.8 | 18.6 ± 4 | 0 | 0 | 0.4 | 1.5 | 21.5 ± 1.7 | 0.4 | 0.4 | 0 | 0 | 1 | –
8 | CC(=O)N[C@H]1[C@H]([C@H](O)[C@H](O)CO)OC(C(=O)O)=C[C@@H]1N [4NH2Neu5Ac2en, 4-amino-2,3-dehydro-N-acetylneuraminic acid, reference compound] | 0.0 ± 6.6 | 98.3 ± 0.1 | 93.6 ± 0.2 | – | – | – | – | – | – | – | – | 95.9 | – | – | – | percent inhibition against SpNanA [4]: 7.9 ± 2.6%; percent inhibition against PmST1 WT [5]: 9.8 ± 1.2%; percent inhibition against hNEU2 ([1]; Table 5): 0.0 ± 6.6%; percentage inhibition against N2-Dar21 [6]: 94.6%; percentage inhibition against NB-Phu13 [7]: 91.2%; percentage inhibition against NB-NB-Aus21 [2, 21]: 97.4%; IC50 ([3]; fluorescence-based inhibition assay, Example 2, Table 3, listed as 4NH2Neu5 Ac2en): 0.49 µM; IC50 ([3]; fluorescence-based inhibition assay, Example 2, Table 3): 0.49 µM; percentage inhibition against N1-BR18 ([3]; Example 3, Table 4): 94.9%; percentage inhibition against N2-Kan17 [9]: 91.3%
9 | CC(=O)N[C@H]1[C@H]([C@H](O)[C@H](O)CO)OC(O)(C(=O)O)C[C@@H]1N (stereo partly shown) [4NH2Neu5Ac (8), 4-amino-4-deoxy-N-acetylneuraminic acid] | – | – | – | – | – | 2.2 ± 1.2 | – | – | – | 41.8 ± 2.8 | – | – | 28.6 ± 24.5 | – | – | –
10 | CC(=O)N[C@H]1[C@H]([C@H](O)[C@H](O)CO)OC(C(=O)O)=C[C@@H]1N=[N+]=[N-] [Compound 4N3Neu5Ac2en, 4N3Neu5Ac2en] | 3.3 ± 0.6 | 82.8 ± 1.7 | 40.7 ± 2.7 | – | – | – | – | – | – | – | – | 39.6 | – | – | – | percent inhibition against SpNanA [4]: 3.0 ± 1.3%; percent inhibition against PmST1 WT [5]: 15.4 ± 5.0%; percent inhibition against hNEU2 ([1]; Table 5): 3.3 ± 0.6%; percentage inhibition against N2-Dar21 [6]: 22.1%; IC50 ([7]; Example 3, Table 6, read-out: IC50 against NB-Phu13): 1.4 ± 0.1 µM; percentage inhibition against NB-Phu13 [7]: 75.6±1.6%; percentage inhibition against NB-NB-Aus21 ([2]; 8 µM): 78.8±3.7%; IC50 ([2]; Example 3, Table 6, read-out: IC50 against NB-NB-Aus21): 1.5 ± 0.1 µM; IC50 ([8]; Example 3, Table 6, read-out: IC50 against N1-Vic19): 6.2 ± 0.4 µM; IC50 ([3]; Example 3, Table 6): 4.4 ± 0.2 µM; percentage inhibition against N1-BR18 ([3]; Example 3, Table 4): 39.2%; percentage inhibition against N2-Kan17 [9]: 18.3%
11 | CC(=O)N[C@H]1[C@H]([C@H](O)[C@H](O)CO)OC(O)(C(=O)O)C[C@@H]1O (stereo partly shown) [Neu5Ac (1), N-Acetylneuraminic acid, reference compound] | – | – | – | – | – | 1.7 ± 0.5 | – | – | – | 20.2 ± 2.6 | – | – | 5.2 ± 5.3 | – | – | –
12 | CC(=O)N[C@@H]1C(O)C[C@](OC2C(O)[C@H](Oc3ccc([N+](=O)[O-])cc3)OC(CO)[C@@H]2O)(C(=O)O)OC1[C@H](O)[C@H](O)CO (stereo partly shown) [Neu5Acα2-3GalβpNP, reference compound] | – | – | – | 17.1 ± 6.1 | 12.4 ± 2.2 | 0 | 0 | 0.9 | 0.7 | 25.6 ± 2.3 | 0.5 | 3.3 | 2.3 ± 1.2 | 1.8 | 0.1 | –
13 | CC(=O)N[C@@H]1C(O)C[C@](OCC2O[C@@H](Oc3ccc([N+](=O)[O-])cc3)C(O)C(O)[C@H]2O)(C(=O)O)OC1[C@H](O)[C@H](O)CO (stereo partly shown) [Neu5Acα2-6GalβpNP, reference compound] | – | – | – | 5.8 ± 6.8 | 14.6 ± 6.4 | 0 | 0 | 0.8 | 0.8 | 25.8 ± 2.1 | 0.2 | 1.4 | 0 | 3.5 | 0.4 | –

Source: US20260242405A1, “N-DERIVATIZED SIALIC ACIDS AND RELATED SIALOSIDES” (THE REGENTS OF THE UNIVERSITY OF CALIFORNIA, priority 2023, published 2026)
